Data on eight molecules can be found in patent US11241412B2 (priority 2015, dated 2022).

The conditions of data set [1]: for adverse local or systemic effects after subcutaneous tumescent infiltration: dilute drug in TAD solution; for AUC / Cmax: Table 16B. An excerpt:
Five pharmacokinetic studies each involved one IVAD procedure and one or two TAD procedures or a concomitant TAD+IVAD procedure. […] The AUC∞ and Cmax with TAD and with IVAD were compared.
The protocol received institutional review board approval and written informed consent was obtained prior to each research procedure. We compared tumescent antibiotic delivery (TAD) and intravenous antibiotic delivery (IVAD) with respect to concentration-time profile, AUC∞, Cmax and T>MIC.
Only after a prospective patient had requested liposuction surgery was the person offered the opportunity to participate in this research. Volunteer subjects were offered liposuction at no cost.
Exclusion criteria were: current significant health problems, history or evidence of HIV or Hepatitis C infection and […] of drugs that block cytochrome P450 3A4 or 1A2 or impair hemostasis.
Each of the 5 studies consisted of one IV antibiotic delivery (IVAD) procedure and one or two TAD infiltration procedures. In individual subjects, procedures were performed at least one week apart.
Metronidazole for IV delivery is available as 500 mg in 100 ml.
The discomfort of tumescent infiltration was minimized by a sequential infiltration technique: first using a spinal needle to infiltrate a relatively small volume of TAD sufficient to provide minimal anesthesia to allow comfortable insertion of blunt-tipped 16 gauge tumescent infiltration cannulas that provide large volume infiltration. The spinal needle and blunt-tipped infiltration cannulas were inserted through the skin via 1 mm adits made by a 1 mm skin biopsy punch. All patients were fully awake and received no parenteral sedation.
Sample Collection: After […], only serum concentrations were measured. After TAD both serum and TISF concentrations were measured. IVAD was achieved via an antecubital vein. Serum samples were obtained via an indwelling IV catheter in the contralateral antecubital vein.
A two-syringe sampling technique first removed 2 mL of blood, which was discarded, and then 10 mL of blood was obtained in a second syringe for drug assay. After each blood sample the IV catheter was flushed with 2 ml of saline and then 0.5 mL of heparin (10 units/mL).
Sequential samples of tumescent adipose tissue (10 ml to 20 ml) were obtained by the hand-held syringe liposuction technique. Sampling began at time T0 immediately after completing TAD infiltration and continued every 1 to 2 hours until the subject experienced significant discomfort as the result of diminishing local anesthesia. Samples of the subcutaneous tissue aspirate were centrifuged. The supranatant fat was discarded.
Data Analysis: We recorded the effect of varying the mg dose and mg/L concentration of antibiotics within TAD solutions between procedures in individual subjects and between different subjects.
Linear regression analysis was used to determine the correlation (coefficient of determination R2) between the antibiotic concentration (mg/L) in a TAD solution and Cmax in the infranatant liposuctioned subcutaneous tissue TISF. After TAD and after IVAD, Cmax in serum was determined by inspection of the sequential assays. AUC∞ was determined by the trapezoid rule.
At the time when each sample of TISF was obtained, patients were examined and questioned about signs and symptoms of subcutaneous tissue toxicity including unusual soreness, tenderness, discoloration, swelling at sites of subcutaneous tumescent infiltration. […] One week after TAD patients were questioned by telephone about any signs and symptoms of subcutaneous tissue toxicity at the sites of TAD.

Data set [2] concerns Staphylococcus aureus (MRSA) ATCC 33592. It counts as cell-based. An excerpt:
Determinations of MBC followed the method described in “Report on the Working Party on Antibiotic Sensitivity Testing of the British Society of Antimicrobial Chemotherapy: A Guide to Sensitivity Testing.”

Data set [3] has the same test system. Kind of data set: microbe, parasite or virus in culture. Conditions: 24 h, read-out: MIC end point.
Description: (§1) Following inoculation, survival of test microorganisms was determined.
For data set [4] the test system is unchanged. The following applies: combined test product Lidocaine+Cefazolin.
Description: as §1
For data set [5] the following is noted: mixed together in a saline solution for IV delivery; 8° C.; cited from earlier work.
Data set [6] concerns platelet aggregation induced by ADP, epinephrine and collagen. The following applies: cited from earlier work.
The test system of data set [7] is human neutrophils. Conditions: cited from earlier work.
For data set [8] the following is noted: commercial lidocaine (1%) with epinephrine (1:100,000); cited from earlier work.
The test system of data set [9] is platelet function. Kind of data set: Bleeding time and bleeding area before and after tumescent lidocaine exposure (Duke method). The class given is in vivo, human. Conditions: post-op tumescent lidocaine exposure. Here is the method:
The skin of the left and right thigh of a subject is cleaned and allowed to dry. […] Simultaneous 4 mm deep puncture wounds are made to the same area of the left and right thighs with disposable lancets. The puncture sites are blotted with filter paper every 30 seconds, until bleeding stops and the bleeding time for each thigh is recorded. The bleeding times of the left and right thigh are compared to determine if administration of TLAnti increases bleeding time. Normal bleeding time measured by the Duke method is 1 to 3 minutes.
In a preliminary experiment, bleeding time and bleeding area were measured in a patient before and after tumescent lidocaine exposure. […] In contrast, there was a 40% increase in Average Bleeding Area (BA). Bleeding Area (BA) was a more sensitive and a more specific test for platelet function compared to Bleeding Time (BT). […] In otherwords, TAD may reduce the risk of both post-operative surgical site infection and post-operative thromboembolism.

For data set [10] the following is noted: adults; TLA without liposuction.
Data set [11] is described as follows: Safety of tumescent drug delivery: subcutaneous infiltration of 20 ml tumescent solutions. The following applies: for ecchymosis / local tenderness upon palpation / stinging upon injection: subcutaneous TI, 20 ml, 6 of 6 subjects. Here is the method:
We studied 6 subjects over 6 days after subcutaneous infiltration of a 20 ml of tumescent solutions of acyclovir and 20 ml of tumescent gentamicin with 20 ml of subcutaneous normal saline and 20 ml of subcutaneous bacteriostatic saline as controls.

[12] abbreviates: Abdomen, TISF, TAD, 172 mg/L, TAD dose 600 mg.
[13] abbreviates: Abdomen, serum, TAD, 172 mg/L, TAD dose 600 mg.

In brackets after ≈: the same amount, converted by molar mass. Several values for one entry are separate records, joined by “and”; a condition that tells them apart may be missing. Identical values can stand only once. Like-named read-outs stand apart in the source and are kept apart here. Some results are limits rather than exact numbers.

For `CNC[C@H](O)c1ccc(O)c(O)c1` [Epinephrine], the “adverse local or systemic effects after subcutaneous tumescent infiltration” value (from here on “adverse local or systemic effects”) in data set [1] is reported as “no adverse local or systemic effects”.

`Cc1nnc(SCC2=C(C(=O)O)N3C(=O)[C@@H](NC(=O)Cn4cnnn4)[C@H]3SC2)s1` [Cefazolin]: the “MRSA survival (MBC test)” value in data set [2] (62.5 mg/L, Day 1, MRSA Inoculum 4.7 × 10^5 CFU/ml) is “+”; in data set [2] (62.5 mg/L, Day 2, MRSA Inoculum 4.4 × 10^5 CFU/ml), “+”; in data set [2] (125 mg/L, Day 1, MRSA Inoculum 4.7 × 10^5 CFU/ml), “+”; in data set [2] (125 mg/L, Day 2, MRSA Inoculum 4.4 × 10^5 CFU/ml), “+”; in data set [2] (250 mg/L, Day 1, MRSA Inoculum 4.7 × 10^5 CFU/ml) it was 0; in [2] (250 mg/L, Day 2, MRSA Inoculum 4.4 × 10^5 CFU/ml) it was 0. The MIC in data set [3] was 125 µg/mL (≈ 275 µM). In data set [4], the “potency of Cefazolin against MRSA in the presence of Lidocaine” value was “not inhibited by the presence of Lidocaine”. In addition, in data set [5], the “chemically stable for” value is reported as “at least 72 hours”.

As to `CCN(CC)CC(=O)Nc1c(C)cccc1C` [Lidocaine], the “lidocaine concentration that consistently inhibits in-vitro platelet aggregation” value in data set [6] (aggregation induced by ADP, epinephrine and collagen) is no less than 0.5 mg/mL. For the same molecule, in data set [6], the “effect on platelet aggregation induced by ADP” value (from here on “effect … by ADP”) is reported as “inhibit platelet aggregation induced by ADP”. The “effect on platelet aggregation” value in [6] (safe systemic concentrations (e.g. ≤6 micrograms/ml)) is reported as “no effect on platelet aggregation”. The “reactive oxygen species (ROS) production by human neutrophils” value in [7] (concentrations 100-fold higher than safe serum lidocaine concentrations (≤5 μg/ml)) is given as “effectively reduced reactive oxygen species (ROS) production”. For the same molecule, the “effect on ROS” value in data set [7] (therapeutic serum lidocaine concentrations) is “no effect on ROS”. For the same molecule, the “dosage limitation approved by the FDA for infiltration local anesthesia” value in data set [8] is given as 7 mg/kg. The “MRSA survival (MBC test)” value in data set [2] (1,000 mg/L, Day 1, MRSA Inoculum 4.7 × 10^5 CFU/ml) was “+”; in [2] (1,000 mg/L, Day 2, MRSA Inoculum 4.4 × 10^5 CFU/ml), “+”; in [2] (5,000 mg/L, Day 2, MRSA Inoculum 4.4 × 10^5 CFU/ml), “+”; in [2] (10,000 mg/L, Day 2, MRSA Inoculum 4.4 × 10^5 CFU/ml), 0. In addition, the “adverse local or systemic effects” value in [1] is “no adverse local or systemic effects”. Moreover, in data set [9] (Patient 1 (control BA = 541)), the “Average Bleeding Area (BA)” value was “BA = 759”. The “Average Bleeding Time (BT)” value in data set [9] (Patient 1 (control BT = 6)) is “BT = 5.75”. In [9] (Patient 1, single tests T3, T4), the “Bleeding Time BT × 2” value was 10 and 13. Also, the “maximum safe dosage (estimated)” value in [10] is on record as 30 mg/kg.

What is called AUC is the area under the concentration-time curve, a measure of exposure. Higher therefore signals high exposure. By Cmax is commonly meant the peak of the concentration-time curve. For `Cc1ncc([N+](=O)[O-])n1CCO` [Metronidazole], the “Cmax in subcutaneous TISF after TAD+IVAD relative to serum after IVAD alone” value in data set [1] (600 mg as TAD (400 mg) + IVAD (200 mg) vs 600 mg IVAD alone) amounted to 10 times. Also, in data set [1] (TAD 500 mg vs IVAD 500 mg), the “Cmax in TISF after TAD relative to Cmax in serum after IVAD” value turned out to be 24.7 times. The AUC was found to be 1032 µg·h/mL in data set [1] (setting [12]); 81 µg·h/mL in data set [1] (setting [13]); 127 µg·h/mL in data set [1] (serum, IVAD, dose 600 mg). Also, the Cmax in [1] (setting [12]) worked out at 160 µg/mL; in data set [1] (setting [13]) it was 4.8 µg/mL; in [1] (serum, IVAD, dose 600 mg), 14 µg/mL. Besides, in [1], the “adverse local or systemic effects” value is “no adverse local or systemic effects”. Also, the “concentration-time profiles of cefazolin and metronidazole in TISF after TAD compared” value in data set [1] (equal mg doses and equal mg/L concentrations in the TAD solution) is on record as “identical”. Moreover, in data set [1] (serum), the “initial period in which serum concentrations were greater after IVAD than after TAD; beyond it TAD greater” value was determined as 10 h. Further, in data set [5], the “chemically stable for” value is given as “at least 72 hours”.

In the case of `CCOC(=O)c1ccc(N)cc1` [benzocaine], in [6], the “effect … by ADP” value is “inhibit platelet aggregation induced by ADP”.

As for Gentamicin, the “clinically significant adverse effects of subcutaneous injection in a dilute tumescent solution” value in data set [11] (conclusion) is “without any clinically significant adverse effects”. In addition, in [11], the ecchymosis entry is listed as “no ecchymosis”, the “local tenderness upon palpation” value is “no local tenderness upon palpation” and the stinging upon injection entry is on record as “no stinging upon injection”.

Regarding `CCCCN1CCCCC1C(=O)Nc1c(C)cccc1C` (stereo not shown) [bupivacaine], the “effect … by ADP” value in data set [6] was “inhibit platelet aggregation induced by ADP”.

On to `Nc1nc2c(ncn2COCCO)c(=O)[nH]1` [Acyclovir], for which, in data set [11], the ecchymosis entry is reported as “no ecchymosis”, the “local tenderness upon palpation” value was “no local tenderness upon palpation” and the stinging upon injection entry is listed as “no stinging upon injection”.
